The test system of series [1] is T. gondii RH strain tachyzoites. The series is described as follows: In vitro anti-invasion assay (qPCR; RH-GFP fluorescence microscopy). It counts as cell-based, Toxoplasma gondii. The conditions noted are these: 0.4 μM, RH strain, qPCR. The procedure:
Vero cells were seeded onto 6-well plates and cultured with DMEM supplemented with 10% FBS to obtain cell monolayers. The medium was replaced with fresh DMEM (1% FBS) containing NBZ023 or NBZ035 (0.24–30 μM), pyrimethamine (0.4 μM) or no drugs (as a control), and tachyzoites (2 × 10^6 per well) were then inoculated into the confluent Vero cell monolayers. At 2 h after infection, the cell monolayers were washed twice with PBS to remove extracellular tachyzoites and then total genomic DNA from the cell samples was isolated with the DNAiso reagent (Takara). The anti-invasion capabilities of NBZ023 and NBZ035 were determined by qPCR. The T. gondii RH strain with green fluorescence was seeded as described above. After infection, the cells were incubated for 36 h to fully observe the infection status of the parasites via fluorescence microscopy.
(In general: In qPCR the cycle at which signal appears reflects the starting amount.)

Another series relates to T. gondii RH tachyzoites. The series is described as follows: Screening for anti-T. gondii activity in vitro (plaque and qPCR assays). The series is classed as cell-based, Toxoplasma gondii. The conditions noted are these: for inhibition of growth at 30 µM: Toxoplasma gondii, Vero, 24 h, RH tachyzoites in Vero cells, plaque and qPCR assays. On the procedure:
The anti-T. gondii activity of compounds NBZ001‒037 was examined via RT-PCR. Confluent Vero cells in 6-well plates were infected with 2 × 10^5 T. gondii RH tachyzoites per well, incubated for 6 h, and then washed twice with PBS to remove extracellular tachyzoites. The cell monolayers were incubated with DMEM (1% FBS) containing various concentrations of NBZ001‒037 for 24 h. Total genomic DNA from each sample was isolated with the DNAiso reagent (Takara), and the levels of the 529-bp repeat element of T. gondii were measured by qPCR. A plaque assay was used to evaluate the activity of the compounds. The detailed experimental procedures were described in previous studies.

The test system of the next series is Vero cells. The series is described as follows: Cell viability assay (CCK-8) on Vero cells. The series is classed as cell-based, African green monkey. The conditions noted are these: 24 h; for Cytotoxicity: CCK-8, tested up to 30 µM; for inhibition at 30 µM: Chlorocebus sabaeus, CCK-8, read-out: Inhibition rate of Vero cell at 30 μM. On the procedure:
African green monkey kidney (Vero) cells were cultured in Dulbecco’s modified Eagle’s medium (DMEM) supplemented with 100 U/mL penicillin, 100 μg/mL streptomycin, 1% nonessential amino acids (NEAAs), 1% GlutaMAX and 10% fetal bovine serum (FBS) at 37 °C in an atmosphere of 5% CO2. […] DMEM without a drug was used as a control. After 24 h of treatment, Cell Counting Kit-8 (CCK-8, CA1210, Solarbio) was used to determine cell viability at 450 nm via a Multiskan GO instrument.

With `CCc1nc(N)nc(N)c1-c1ccc(Cl)cc1` [pyrimethamine, reference compound], in series [1], the anti-invasion rate was 26.77%.

Consider `Cc1ccc2[nH]c3c(C(=O)c4ccccc4Cl)nccc3c2c1` [NBZ004], for which, in the series on T. gondii RH tachyzoites, the inhibition of growth – broadly, the relative decrease from the control value, in per cent – at 30 µM came out at 43.8%. In the series on Vero cells, the Cytotoxicity was greater than 30.00 µM and the inhibition – broadly, the share of the control response that was lost under treatment – at 30 µM was determined as 5.35%.

Take `O=C(Nc1ccccc1)c1ccc2[nH]c3c(C(=O)c4ccccc4Cl)nccc3c2c1` [NBZ021]: in the series with T. gondii RH tachyzoites (30 μM screening, ortho-Cl versus NBZ022), the “improved efficacy over NBZ022” value is 66.21%. The same compound yielded an inhibition of growth at 30 µM in the series with T. gondii RH tachyzoites greater than 50%. Besides, in the series on Vero cells, the Cytotoxicity is greater than 30.00 µM and the inhibition at 30 µM was 11.4%.

The compound `Cc1ccccc1NC(=O)c1ccc2[nH]c3c4[n+](ccc3c2c1)-c1ccccc1C4=O` [NBZ036] gave an inhibition of growth at 30 µM with T. gondii RH tachyzoites of 42.9%. Besides, in the series with Vero cells, the Cytotoxicity was greater than 30.00 µM and the inhibition at 30 µM came out at 9.02%.

The values are drawn from paper PMC12750888, “Design, synthesis, and anti-Toxoplasma gondii evaluation of β-carboline derivatives” (Parasites & Vectors, 2025).
